The subject of series [1] is stage-4 melanoma patients. Kind of series: Ipilimumab treatment of stage-4 metastatic melanoma patients: response and survival. In kind it is in vivo, human. Here is the method: The percentage of MDSC with the profile CD11b^+CD33^+HLA-DR^− was measured in peripheral blood samples (3-5 ml) of healthy donors (n=40) and stage-4 melanoma patients (n=56) prior to ipilimumab (anti-CTLA4) treatment. All the melanoma patients were diagnosed with metastatic melanoma. The samples were taken according to the Helsinki approval. Clinical parameters were acquired from the medical records of patients.
In order to evaluate whether MDSC levels in the blood can predict responsiveness to treatment with the anti CTLA4 antibody ipilimumab, the levels of MDSC in the peripheral blood of melanoma patients were measured, as described above, prior to treatment with ipilimumab. […] As shown in FIG. 3A there was a strike correlation between high levels of MDSC in the peripheral blood of patients and subsequent failure to respond to treatment with ipilimumab. Clearly, this parameter could distinguish between the two groups of melanoma patients. In addition, the level of lactate dehydrogenase (LDH) was evaluated before the treatment with ipilimumab began. There was no significant difference between the groups of patients with respect to this parameter (FIG. 3B).
The following experiment was performed in order to evaluate whether MDSC levels in the blood can predict metastatic severity and patient survival. The levels of MDSC, as well as the levels of LDH, were measured in the peripheral blood of melanoma patients, as described above, prior to treatment with ipilimumab. […] In addition, as shown in FIG. 4B higher MDSCs levels are found in the group of patients with high LDH levels (LDH low<480 U/I; LDH high>480 U/I). In addition, the melanoma patients were divided into two groups according to their MDSCs levels measured prior to the ipilimumab treatments; one group was termed Low MDSCs (<55.5%, n=39) and the other group was termed High MDSCs (>55.5%, n=14). The percent survival and their survival in months were evaluated. […] The survival in months of the Low MDSCs group being 11.56±1.2 (n=39) and of the High MDSCs group being 6.857±1.4 (n=14). Apparently, high MDSC levels are predictors of a more severe metastatic profile and of a shorter survival time of the cancer patient.
In this experiment the survival of melanoma patients was correlated with the severity of their metastatic stage and with their LDH levels. The patients were divided into two groups according to their metastatic level prior to ipilimumab treatments; the first group included patients with the relatively lower metastatic severity, namely M1A/B/C, and the second group included patients with the higher, M2, metastatic severity. As shown in FIGS. 5A and 5B the survival of patients in the M1A/B/C group was higher than the survival of the patients in the M2 group, being 12.4±1.2 months (n=35) in the M1A/B/C group and 6.1±1.1 months (n=18) in the M2 group. The patients were divided into two groups according their LDH levels prior to ipilimumab treatments; the first group included patients with the relatively lower LDH level, namely LDH<480 U/I; and the second group included patients with the higher LDH level, namely LDH>480 U/I. As shown in FIGS. 5C and 5D the survival of patients in the LDH low group was higher than the survival of the patients in the LDH high group, being 13.5±1.4 months (n=28) in the LDH low group and 6.6±0.9 months (n=20) in the LDH high group. Apparently, high LDH levels and a severe metastatic stage are predictors of a shorter survival time of the cancer patient.
These patients had high LDH levels on the day the first ipilimumab treatment was given and their staging level was M1C.

Series [2] concerns β-catenin. The experiment in a line: β-catenin immunohistochemistry of colons of CRC-mice. In kind it is in vivo, mouse.
The test system of series [3] is MDSCs. The experiment in a line: BCG chronic inflammation mouse model: ROS and NO^− production by MDSCs. In kind it is in vivo. To be noted: splenic MDSCs, compared to inflamed-untreated mice. Here is the method: (§1) Mice were injected intraperitoneally with 10 mg/kg body weight of Azoxymethan (AOM, purchased from Sigma-Aldrich (St. Louis, Mo., USA)) dissolved in physiological saline twice in two weeks intervals. Two weeks later, 2% dextran sulfate sodium (DSS, purchased from MP biochemicals Inc. (Santa Ana, Calif., USA)) was given in the drinking water over 7 days, followed by 14 days of regular water (15). This cycle was repeated twice. Animals were sacrificed and analyzed three weeks after the last treatment. To induce a pathology-free chronic inflammation, a previously described protocol subjecting mice to heat-killed Mycobacterium […] (BCG) treatment (16) was used.
(§2) Next, the immunoregulatory effects of 5FU and CPT11 were examined in a mouse model for chronic inflammation and associated immunosuppression (10), as described in the materials and method section above and in FIG. 13A. This experiment was performed in order to investigate whether the differential effects of the drugs are related to the presence of the tumor. Briefly, the mouse model for chronic inflammation was established by three repeated injections of heat-killed BCG bacteria. A day after the second BCG injection, mice were treated twice a week with 5FU, CPT11 or a 5FU/CPT11 combination. […] No changes in CD4^+Foxp3^+ Tregs percentage were detected (FIG. 13H), confirming that these chemotherapies specifically affect MDSCs.

In series [4] the test system is CRC-derived MDSC. The experiment in a line: Ex vivo GM-CSF mediated myeloid-cell differentiation. It counts as cell-based, mouse. The settings on record: 10 ng/ml GM-CSF, 72 h, vs GM-CSF only.
The subject of series [5] is TNFα, S100A9. The experiment in a line: TNFα and S100A9 mRNA in ex vivo cultured MDSCs (Real Time PCR). It counts as cell-based, mouse. To be noted: 3 days. A general note: Quantitative PCR measures a nucleic acid by following its amplification.
In series [6] the test system is CRC-mice. Kind of series: Vitality and survival of CRC-mice. It counts as in vivo, mouse. The settings on record: daily recorded, compared to 5FU, CPT11 treated MDSC depleted or untreated CRC-mice. The procedure: Therefore, MDSC depletion could reduce the harmful effect of CPT11 on the immune status, and thereby enhance the anti-tumor effect. CRC-mice were subjected to either 5FU, CPT11 or a 5FU/CPT11 combination starting at week eight, or were untreated. At the same day of the second DSS administration, CPT11-treated CRC-mice were randomly separated into two groups; one group continued with CPT11 treatment while the second group was treated with anti-Gr1 mAb for MDSC depletion in addition to CPT11 treatment. Three weeks after the second DSS treatment mice were sacrificed and PBLs (FIG. 10B) and colons (FIG. 10C) were analyzed. […] This pattern indicates a beneficial effect of 5FU that attenuates CRC progression with a harmful contribution of CPT11, supporting immunosuppression and tumor progression via its effects on MDSCs.

For series [7], the system named is MDSCs. Kind of series: NO^− and ROS production by MDSCs of treated CRC-mice (flow cytometry). In kind it is in vivo, mouse. A general note: Flow cytometry measures light scatter and fluorescence of single cells or particles in a stream.
Series [8] relates to CRC-mice.
Series [9] concerns MDSCs. Kind of series: Myeloid cell differentiation in vivo in CRC-mice.
In series [10] the test system is CD247. Kind of series: CD247 expression in T-cells of CRC-mice. In kind it is in vivo, mouse. The settings on record: splenocytes of CRC-mice. Here is the method:
(§3) Next, the effect of the given chemotherapies on the immune status was evaluated. This was performed by testing the function of the whole T-cell population (FIG. 9J) as well as the CD8^+ T-cells (FIG. 9K) in all experimental groups along with measurements of the expression levels of CD247 in CD3^+ (FIG. 9L) and in CD8^+ T-cells (FIG. 9M). T-cell proliferative response was assessed by monitoring cell divisions of gated CFSE-labeled Thy1.2^+ (CD90^+) T-cells upon TCR-CD28 mediated activation.

The test system of series [11] is S100A8/9. To be noted: MDSCs from spleen of CRC-mice.
For series [12], the system named is cleaved caspase-3. Kind of series: Cleaved caspase-3 in splenic MDSCs of treated CRC-mice. In kind it is in vivo, mouse.
Series [13] relates to MDSCs. The experiment in a line: BCG chronic inflammation mouse model: MDSC levels. In kind it is in vivo. To be noted: PBLs and spleen, compared to inflamed-untreated mice. Here is the method: as §1, §2
Series [14] concerns MDSCs isolated from spleens of CRC-mice. Kind of series: NO^− and ROS production in ex vivo cultured MDSCs. It counts as cell-based, mouse. To be noted: 2.5 μmol/L, 24 h.
In series [15] the test system is T-cells. Kind of series: CFSE T-cell proliferation assay, splenocytes of CRC-mice. In kind it is in vivo, mouse. To be noted: CFSE-labeled Thy1.2^+ T-cells, TCR-CD28 mediated activation, vs untreated CRC-mice. Here is the method: as §3, with “Splenocytes or purified T-cells isolated by a magnetic column separation system (Miltenyi Biotec) were labeled with […] CFSE (Invitrogen) and subjected to TCR-mediated activation as previously described (16). Next,” for “Next,”

The subject of series [16] is Gr1^+CD11b^+ MDSCs. The experiment in a line: MDSC accumulation in colon, spleen and PBLs of CRC-mice. It counts as in vivo, mouse.
For series [17], the system named is MDSCs isolated from spleens of CRC mice. Kind of series: Cleaved caspase-3 in ex vivo cultured MDSCs, DCs and macrophages. In kind it is cell-based, mouse. The settings on record: ex vivo, various doses, 3 days, dose-dependent.

As for “ipilimumab: humanized anti-CTLA4 monoclonal antibody”, the survival in months was 6.6±0.9 months in [1] (LDH high group (>480 U/I, n=20) prior to ipilimumab); 13.5±1.4 months in series [1] (LDH low group (<480 U/I, n=28) prior to ipilimumab); 12.4±1.2 months in series [1] (M1A/B/C group (n=35), metastatic level prior to ipilimumab); 6.1±1.1 months in series [1] (M2 group (n=18), metastatic level prior to ipilimumab); 6.857±1.4 months in series [1] (melanoma patients, High MDSCs group (>55.5%, n=14) prior to ipilimumab); 11.56±1.2 months in series [1] (melanoma patients, Low MDSCs group (<55.5%, n=39) prior to ipilimumab). Moreover, the “patients that responded to the ipilimumab treatment” value in series [1] (out of the 56 patients involved in this study) is 14 patients.
As to `CCc1c2c(nc3ccc(OC(=O)N4CCC(N5CCCCC5)CC4)cc13)-c1cc3c(c(=O)n1C2)COC(=O)[C@]3(O)CC` [CPT11, Irinotecan], the “β-catenin localization in CRC colons” value in [2] is reported as “massive β-catenin accumulation in the nuclei of tumor cells”. Also, the “ROS and NO^− production” value in [3] is on record as “induced opposite effects”. Also, the “GM-CSF mediated CRC-derived MDSC differentiation” value in [4] is recorded as “prevented cell differentiation”. In series [5], the “mRNA levels of TNFα and S100A9” value was “increased mRNA levels”. For the same molecule, the “vitality and survival of the mice” value in series [6] was “increased death rates”. The “NO^− production” value in series [7] (lamina propria and epithelial MDSCs, vs untreated CRC mice) is “NO^− levels remained elevated”. The “NO^− and ROS production” value in series [7] (splenic MDSCs, compared to untreated CRC-mice) is “elevated levels”. Moreover, the “spleen size (inflammatory response)” value in series [8] (compared to 5FU treated CRC- or control-mice) is listed as “enlarged spleen size”. Also, in series [8] (monotherapy for three weeks, vs untreated CRC mice), the “tumor load within the colon (hematoxylin-eosin histopathology)” value is recorded as “no apparent differences in tumor loads”. Besides, in series [8] (three weeks after second DSS treatment), the “histopathological analysis of colon sections (hematoxylin-eosin)” value is recorded as “differentiated adenocarcinoma”. The “histological analyses of colons” value in [8] (treated CRC-mice) is “not only a loss of entire crypts and surface epithelial layer, but also a massive leukocyte infiltration into the mucosa”. Also, the “myeloid cell differentiation in vivo (DCs and macrophages)” value in series [9] was “blocked myeloid cell differentiation”. For the same molecule, the “CD247 expression levels in T-cells” value in series [10] is “low CD247 levels”. The “S100A8/9 mRNA and protein levels” value in series [11] was “increased S100A8/9 levels”. The “cleaved caspase-3 expression in spleen MDSCs” value in [12] was “decreased cleaved caspase-3 levels”. Also, the MDSC levels entry in series [13] is “induced opposite effects”. In series [14], the “NO^− and ROS production in monocytic and granulocyte MDSC populations” value was “increased NO^− (FIG. 9H) and ROS (FIG. 9I) production”; the “NO^− or ROS production in purified cultured MDSCs” value is on record as “resulted in their elevation”. Also, in series [15], the T-cell proliferative ability result is “decreased T-cell proliferative ability”. Further, the “MDSCs within the colon (immunohistochemical probing)” value in [16] (anti-Gr-1 staining) is recorded as “elevated levels of the cells”. Besides, in [16] (lamina propria and epithelium, flow cytometry, vs untreated CRC-mice), the “MDSC numbers / infiltration in colon” value was “increased MDSC numbers”. In addition, the “cleaved caspase-3 in purified cultured MDSCs” value in series [17] was “not CPT11 leads to cleaved caspase-3 up-regulation”.

These data come from patent US20170261507A1, “Methods for Predicting and Monitoring Cancer Patients' Response to Teatment by Measuring Myeloid Derived Suppressor Cells (MDSCs)” (YISSUM RESEARCH DEVELOPMENT COMPANY OF THE HEBREW …, priority 2014, published 2017).
